The record followed here is PubChem BioAssay (NCI).

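Test compounds were applied to cells in 96-well plates for 48 hours at 5 doses. GI50 = concentration required for 50% inhibition of growth. TGI denotes the concentration required for complete inhibition of growth.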

Some test systems named below: KM12 colon; NCI-H226 lung; HOP-92 NSCLC; MOLT-4 leukemia; UO-31 renal; 786-0 renal; TK-10 renal; LOX IMVI melanoma; OVCAR-8 ovarian; RXF 393 renal.
What all share (experiment): NCI anticancer screen, dose series, 48 h

With `CCCCCCCCCCCCn1c(C)nc2ccccc21`, the GI50 in the assay with KM12 colon was 14.3 µM; with NCI-H226 lung, 12.7 µM; in the assay on HOP-92 NSCLC, 11 µM; in the assay on MOLT-4 leukemia, 10.2 µM; with UO-31 renal, 7.58 µM; in the assay on 786-0 renal, 11.5 µM. The figures for the GI50 in the assay with TK-10 renal and in the assay on LOX IMVI melanoma were 11.2 µM and 3.72 µM, respectively. The TGI in the assay with KM12 colon stood at 29 µM; in the assay on NCI-H226 lung, 31.7 µM; in the assay with HOP-92 NSCLC, 23.9 µM; with MOLT-4 leukemia, 23.5 µM; in the assay with UO-31 renal, 20.6 µM; with 786-0 renal, 24 µM. Besides, the TGI in the assay with TK-10 renal amounted to 25.5 µM; in the assay on LOX IMVI melanoma, 20.5 µM.

In the case of `COC(=O)c1c[nH]c(=O)[nH]c1=O`, the TGI in the assay with OVCAR-8 ovarian, in the assay on KM12 colon, in the assay with HOP-92 NSCLC, in the assay with MOLT-4 leukemia, in the assay on UO-31 renal and with 786-0 renal was over 100 µM each time. In addition, the TGI in the assay on TK-10 renal and with LOX IMVI melanoma was over 100 µM throughout.

In the case of `O=C(c1ccccc1)C1C(C(=O)c2ccccc2)N1Cc1ccccc1` (stereo unspecified), the TGI in the assay with OVCAR-8 ovarian, in the assay on KM12 colon, in the assay on NCI-H226 lung, in the assay with HOP-92 NSCLC, with MOLT-4 leukemia and in the assay on UO-31 renal was over 100 µM each time. Moreover, the TGI in the assay on 786-0 renal, with TK-10 renal and in the assay on LOX IMVI melanoma was over 100 µM in each case.

`O=C1C2c3[nH]c4ccccc4c3[C@@H]3CCCCCCCCCCC3C2C(=O)N1c1ccccc1` (stereo partly specified): the TGI in the assay with OVCAR-8 ovarian was 42 µM; in the assay with KM12 colon, 42 µM; in the assay with NCI-H226 lung, 95 µM; in the assay on UO-31 renal, over 100 µM; in the assay with 786-0 renal, 35.7 µM; with TK-10 renal, 44.3 µM. The figures for the TGI with RXF 393 renal and in the assay on LOX IMVI melanoma were 32.7 µM and 43.3 µM, respectively.

Regarding `Cn1c2ccccc2c(=Nc2ccccc2)c2c3ccccc3[nH]c21`, the GI50 is 1.85 µM in the assay on OVCAR-8 ovarian; 0.615 µM with NCI-H226 lung; 0.942 µM in the assay with HOP-92 NSCLC; 0.32 µM with MOLT-4 leukemia; 1.93 µM in the assay on UO-31 renal; 1.33 µM with 786-0 renal. For the same molecule, the GI50 in the assay on TK-10 renal is 1.03 µM; with RXF 393 renal, 1.84 µM. Besides, the TGI in the assay on OVCAR-8 ovarian is 10.2 µM; with NCI-H226 lung, 2 µM; in the assay with HOP-92 NSCLC it was 2.39 µM; with MOLT-4 leukemia it was 11.7 µM; in the assay on UO-31 renal, over 100 µM; with 786-0 renal, 2.63 µM. Further, the TGI in the assay with TK-10 renal amounted to 2.2 µM; in the assay with RXF 393 renal, 4.05 µM.

As to `COc1ccc(/C=C2\Cc3ccccc3C2=O)cc1OC`, the TGI with OVCAR-8 ovarian, in the assay on KM12 colon, in the assay with MOLT-4 leukemia, in the assay on UO-31 renal, in the assay with 786-0 renal and in the assay on TK-10 renal was over 100 µM throughout.

In the case of `O=P(Oc1ccc(Cl)cc1)(Oc1ccc(Cl)cc1)N1CC1`, the TGI in the assay with OVCAR-8 ovarian, in the assay with KM12 colon, in the assay on NCI-H226 lung, in the assay on MOLT-4 leukemia, with UO-31 renal and in the assay on 786-0 renal was over 10 µM throughout. Besides, the TGI in the assay with TK-10 renal and in the assay with LOX IMVI melanoma was over 10 µM throughout.

For the molecule `COc1ccc2cccc(C(=O)c3ccc(C)c4c3CCC4)c2c1`, the TGI in the assay on OVCAR-8 ovarian is over 100 µM; in the assay with KM12 colon, over 100 µM; in the assay on NCI-H226 lung it was over 100 µM; in the assay with MOLT-4 leukemia it was 97.2 µM; in the assay on UO-31 renal, 82.4 µM; in the assay on 786-0 renal it was 77.7 µM. For the same molecule, the figures for the TGI in the assay with TK-10 renal, in the assay on RXF 393 renal and in the assay with LOX IMVI melanoma were over 100 µM, 73.5 µM and 38.8 µM, respectively.

On to `CCCCCCCCCCCC(=O)OCC1OC(n2cc(F)c(=O)[nH]c2=O)C(NC(=O)OCc2ccccc2)C(O)C1O` (stereo unspecified), for which the TGI was determined as 43.7 µM in the assay on OVCAR-8 ovarian; 42.9 µM in the assay with KM12 colon; 40.7 µM in the assay on HOP-92 NSCLC; 53.4 µM with MOLT-4 leukemia; 93 µM in the assay with UO-31 renal; 50.9 µM with 786-0 renal. Also, the TGI in the assay on TK-10 renal is over 100 µM; with RXF 393 renal, 73.6 µM; in the assay with LOX IMVI melanoma, 32.4 µM.

Consider `S=c1nc(-c2ccccc2)oc(=NC2CCCCC2)n1C1CCCCC1`, for which the GI50 was 3.22 µM with OVCAR-8 ovarian; 3.48 µM in the assay with KM12 colon; 17.5 µM with NCI-H226 lung; 1.54 µM in the assay on MOLT-4 leukemia; over 100 µM with UO-31 renal; 4.46 µM in the assay on 786-0 renal. For the same molecule, the GI50 is 4.31 µM in the assay on TK-10 renal and 4.89 µM with LOX IMVI melanoma. In addition, the TGI in the assay with OVCAR-8 ovarian is 18.5 µM; in the assay with KM12 colon, 10.1 µM; with NCI-H226 lung, 37.9 µM; in the assay on HOP-92 NSCLC it was 0.079 µM; in the assay with MOLT-4 leukemia, 6.01 µM; in the assay on UO-31 renal, over 100 µM. Besides, the TGI came to 16.2 µM in the assay on 786-0 renal, 8.57 µM in the assay with TK-10 renal and 20.8 µM in the assay on LOX IMVI melanoma.

Turning to `COC(=O)C(=O)C1(CCC(C)=O)c2ccccc2-c2ccccc21`, the TGI with OVCAR-8 ovarian, in the assay with KM12 colon, with NCI-H226 lung, in the assay on MOLT-4 leukemia, in the assay with UO-31 renal and with 786-0 renal was over 100 µM in each case. The TGI in the assay with TK-10 renal, with RXF 393 renal and in the assay with LOX IMVI melanoma was over 100 µM throughout.

For `Nc1nc2c(ncn2C2OC(CO)C(O)C2N)c(=O)[nH]1` (stereo unspecified), the TGI with OVCAR-8 ovarian, with KM12 colon, with HOP-92 NSCLC, with MOLT-4 leukemia, in the assay on UO-31 renal and in the assay on 786-0 renal was over 100 µM throughout. In addition, the TGI in the assay with TK-10 renal and with LOX IMVI melanoma was over 100 µM in each case.

Take `COc1ccc(/C=C/c2c(C(=O)/C=C/c3ccc(Cl)cc3)c(C)nc3ccccc23)cc1`: the GI50 in the assay on OVCAR-8 ovarian was 2.43 µM; in the assay on KM12 colon, 1.73 µM; in the assay on NCI-H226 lung it was 1.8 µM; in the assay with MOLT-4 leukemia, 2 µM; in the assay with UO-31 renal, 1.21 µM; in the assay on 786-0 renal it was 1.82 µM. The values for the GI50 in the assay on TK-10 renal, with RXF 393 renal and in the assay with LOX IMVI melanoma were 2.87 µM, 1.78 µM and 1.51 µM, respectively. Besides, the TGI was 9.13 µM in the assay on OVCAR-8 ovarian; 3.56 µM in the assay with KM12 colon; 3.72 µM with NCI-H226 lung; over 100 µM in the assay on MOLT-4 leukemia; 2.47 µM with UO-31 renal; 3.4 µM in the assay on 786-0 renal. Moreover, the TGI in the assay on TK-10 renal is 4.95 µM; in the assay on RXF 393 renal, 3.34 µM; in the assay on LOX IMVI melanoma it was 2.9 µM.
